Results: US12528784B2, “Alkynyl-(heteroaryl)-carboxamide HCN1 inhibitors” (Hoffmann-La Roche Inc., priority 2019, dated 2026)

Tests used:
HCN1 = target: T1, HCN1 (Homo sapiens, UniProt O60741); assay: HCN1 automated patch clamp current inhibition assay (Ionworks Barracuda); type: cell-based; conditions: HEK-293 cells stably expressing HCN1; current inhibition during a hyperpolarizing pulse of -100 mV
T1 construct: expressed in transfected cells
T1 sequence (O60741 1-890): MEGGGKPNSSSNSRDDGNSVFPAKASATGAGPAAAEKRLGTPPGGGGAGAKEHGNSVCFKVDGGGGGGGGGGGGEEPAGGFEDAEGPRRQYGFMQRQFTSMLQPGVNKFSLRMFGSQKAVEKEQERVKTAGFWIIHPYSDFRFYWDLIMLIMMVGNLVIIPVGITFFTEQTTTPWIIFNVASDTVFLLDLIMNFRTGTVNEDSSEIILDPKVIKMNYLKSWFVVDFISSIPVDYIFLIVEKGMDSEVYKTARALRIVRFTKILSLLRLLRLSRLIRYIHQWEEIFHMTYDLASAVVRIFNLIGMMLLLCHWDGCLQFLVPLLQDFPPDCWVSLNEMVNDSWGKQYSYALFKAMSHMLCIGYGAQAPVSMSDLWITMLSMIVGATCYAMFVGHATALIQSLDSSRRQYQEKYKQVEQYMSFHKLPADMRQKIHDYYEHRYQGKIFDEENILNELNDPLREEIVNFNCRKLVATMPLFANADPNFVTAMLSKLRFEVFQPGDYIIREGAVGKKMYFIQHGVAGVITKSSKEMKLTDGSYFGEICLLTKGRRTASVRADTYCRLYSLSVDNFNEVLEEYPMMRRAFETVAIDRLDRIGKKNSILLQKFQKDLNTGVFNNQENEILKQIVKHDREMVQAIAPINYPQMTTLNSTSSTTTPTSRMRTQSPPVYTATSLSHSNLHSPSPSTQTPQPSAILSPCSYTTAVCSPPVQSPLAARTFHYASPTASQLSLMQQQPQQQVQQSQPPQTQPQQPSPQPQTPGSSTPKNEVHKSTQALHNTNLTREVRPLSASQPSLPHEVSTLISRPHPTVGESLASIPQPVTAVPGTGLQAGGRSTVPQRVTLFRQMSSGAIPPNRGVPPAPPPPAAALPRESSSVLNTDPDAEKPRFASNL
Experimental: (§1) In vitro, high-throughput cellular electrophysiology was employed to detect voltage- and use-dependence of compounds in single concentration screening and IC50 determination for library and medicinal chemistry profiling compounds in 384 well plates.
(§2) Cell cultures were maintained in DMEM/F12 cell growth media containing FBS and appropriate antibiotics at 37° C., 5% CO2 for a maximum of 20 passages. At a time point of 40-72 hours prior to assay, the expression of HCN protein in the cells is induced by addition of tetracyclin. Cells may be incubated at 27° C. for 2-24 hours of induction. […] Cells were harvested at 80% confluency and resuspended in extracellular buffer and added to wells. A freshly prepared Escin solution was added to intracellular buffer and applied to establish whole cell recording via perforated patch clampling by APC.
(§3) Currents through activated channels were measured directly by APC by employing hyperpolarizing voltage steps. The activation window was increased and stabilized by the addition of cell permeable Br-cAMP. Baselines were established for both use- and voltage-dependence protocols using a −30 mV holding potential and multiple test pulses at −100 mV or by 20 mV steps from −120 to 0 mV, respectively. Test compounds were added after baseline recordings followed by a 10 min incubation, voltage-dependency protocol recording, and use-dependency recording. Data was corrected for baseline and rundown (well based) and normalized for % inhibition (plate based). Five previously reported HCN inhibitors of varying potencies and selectivities and zatebradine were used for run to run and plate to plate quality controls. […] Percent inhibition was analysed at −80, −100, −120 mV of the voltage-dependency protocol and at pulse 0 and 50 of the use-dependency protocols. Selectivity was assessed against HCN2, HCN3, and HCN4 overexpressing cell lines using similar methods. As HCN4 has a slower activation than the other HCN channels, activation was extended to achieve steady state activation.

HCN2 = target: T2, HCN2 (Homo sapiens, UniProt Q9UL51); assay: HCN2 automated patch clamp current inhibition assay (Ionworks Barracuda); type: cell-based; conditions: HEK-293 cells stably expressing HCN2; current inhibition during a hyperpolarizing pulse of -100 mV
T2 construct: expressed in transfected cells
T2 sequence (Q9UL51 1-889): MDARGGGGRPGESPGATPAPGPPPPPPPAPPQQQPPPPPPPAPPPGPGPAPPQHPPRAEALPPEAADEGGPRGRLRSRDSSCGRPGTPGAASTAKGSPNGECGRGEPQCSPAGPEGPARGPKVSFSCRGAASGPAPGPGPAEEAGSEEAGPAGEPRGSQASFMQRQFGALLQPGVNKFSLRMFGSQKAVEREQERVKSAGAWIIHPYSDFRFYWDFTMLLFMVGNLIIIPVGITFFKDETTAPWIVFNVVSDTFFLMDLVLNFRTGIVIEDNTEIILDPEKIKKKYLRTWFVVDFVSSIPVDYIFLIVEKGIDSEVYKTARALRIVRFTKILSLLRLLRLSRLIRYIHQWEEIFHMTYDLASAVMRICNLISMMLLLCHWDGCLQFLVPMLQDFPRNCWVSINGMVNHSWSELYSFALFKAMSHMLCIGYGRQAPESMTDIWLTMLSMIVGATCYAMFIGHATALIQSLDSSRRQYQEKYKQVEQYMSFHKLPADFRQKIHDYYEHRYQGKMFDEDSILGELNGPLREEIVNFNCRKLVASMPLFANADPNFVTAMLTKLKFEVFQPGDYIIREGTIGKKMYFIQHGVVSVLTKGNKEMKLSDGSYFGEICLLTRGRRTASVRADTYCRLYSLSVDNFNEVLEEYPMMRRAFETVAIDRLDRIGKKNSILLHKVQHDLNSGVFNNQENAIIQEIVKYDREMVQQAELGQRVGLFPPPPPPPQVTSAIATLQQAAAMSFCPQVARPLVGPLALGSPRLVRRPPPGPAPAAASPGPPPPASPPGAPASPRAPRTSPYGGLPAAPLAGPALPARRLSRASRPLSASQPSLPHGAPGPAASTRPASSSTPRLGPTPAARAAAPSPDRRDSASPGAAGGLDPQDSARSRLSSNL
Experimental: as §1, §2, §3

| Structure (SMILES) | IC50 (HCN1) | IC50 (HCN2) |
| --- | --- | --- |
| Cc1ccc(-n2c(C(N)=O)nc(C#Cc3ccnc(Cl)c3)c2C)cn1 [Example 6, 4-(2-Chloro-pyridin-4-ylethynyl)-5-methyl-1-(6-methyl-pyridin-3-yl)-1H-imidazole-2-carboxylic Acid Amide] | 260 nM | > 40000 nM |
| COc1cccc(C#Cc2nc(C(N)=O)n(-c3ccc(C)nc3)c2C)c1 [Example 8, 4-((3-Methoxyphenyl)ethynyl)-5-methyl-1-(6-methylpyridin-3-yl)-1H-imidazole-2-carboxamide] | 460 nM | > 40000 nM |
| Cc1cccc(C#Cc2nc(C(N)=O)n(-c3ccc(C)nc3)c2C)c1 [Example 10, 5-Methyl-1-(6-methylpyridin-3-yl)-4-(m-tolylethynyl)-1H-imidazole-2-carboxamide] | 579 nM | > 40000 nM |
| Cc1cnc(-n2c(C(N)=O)nc(C#Cc3ccnc(Cl)c3C)c2C)cn1 [Example 23, 4-[2-(2-Chloro-3-methyl-4-pyridyl)ethynyl]-5-methyl-1-(5-methylpyrazin-2-yl)imidazole-2-carboxamide] | 303 nM | > 40000 nM |
| Cc1ccc(-c2c(C(N)=O)nc(C#Cc3ccnc(Cl)c3)n2C)cn1 [Example 32, 2-[2-(2-Chloro-4-pyridyl)ethynyl]-1-methyl-5-(6-methyl-3-pyridyl)imidazole-4-carboxamide] | 429 nM | > 40000 nM |
| Cc1c(C#Cc2ccnc(Cl)c2)nc(C(N)=O)n1-c1ccc(Cl)cc1 [Example 39, 1-(4-Chlorophenyl)-4-((2-chloropyridin-4-yl)ethynyl)-5-methyl-1H-imidazole-2-carboxamide] | 383 nM | > 40000 nM |
| NC(=O)c1nc(C#Cc2ccnc(Cl)c2)cn1-c1ccc(F)cc1 [Example 42, 4-(2-Chloro-pyridin-4-ylethynyl)-1-(4-fluoro-phenyl)-1H-imidazole-2-carboxylic Acid Amide] | 2520 nM | > 40000 nM |

Stronger by IC50 (HCN1), values ahead:

| IC50 (HCN1) | IC50 (HCN2) | Structure (SMILES) |
| --- | --- | --- |
| 241 nM | > 40000 nM | Cc1c(C#Cc2nc(C(N)=O)n(-c3ccc(Cl)nc3)c2C)ccnc1Cl [Example 26, 4-[2-(2-Chloro-3-methyl-4-pyridyl)ethynyl]-1-(6-chloro-3-pyridyl)-5-methyl-imidazole-2-carboxamide] |
| 240 nM | > 40000 nM | Cc1ccc(-n2c(C(N)=O)nc(C#Cc3cccc(C#N)c3)c2C)cn1 [Example 5, 4-((3-Cyanophenyl)ethynyl)-5-methyl-1-(6-methylpyridin-3-yl)-1H-imidazole-2-carboxamide] |
| 232 nM | > 40000 nM | Cc1ccc(-n2c(C(N)=O)nc(C#Cc3ccnc(Cl)c3)c2C)cc1 [Example 38, 4-[2-(2-Chloro-4-pyridyl)ethynyl]-5-methyl-1-(p-tolyl)imidazole-2-carboxamide] |
| 231 nM | > 40000 nM | Cc1ccc(-n2c(C(N)=O)cc(C#Cc3ccnc(Cl)c3)c2C)cn1 [Example 31, 4-[2-(2-Chloro-4-pyridyl)ethynyl]-5-methyl-1-(6-methyl-3-pyridyl)pyrrole-2-carboxamide] |
| 225 nM | 30600 nM | Cc1ccc(-n2c(C(N)=O)nc(C#Cc3cccc(Cl)c3)c2C)cn1 [Example 4, 4-[2-(3-Chlorophenyl)ethynyl]-5-methyl-1-(6-methyl-3-pyridyl)imidazole-2-carboxamide] |
| 192 nM | > 40000 nM | Cc1ccc(-n2c(C(N)=O)nc(C#Cc3ccnc(Cl)c3C)c2C)nc1 [Example 28, 4-[2-(2-Chloro-3-methyl-4-pyridyl)ethynyl]-5-methyl-1-(5-methyl-2-pyridyl)imidazole-2-carboxamide] |
| 173 nM | > 40000 nM | Cc1ccc(-n2c(C(N)=O)nc(C#Cc3ccnc(Cl)c3F)c2C)cn1 [Example 2, 4-((2-Chloro-3-fluoropyridin-4-yl)ethynyl)-5-methyl-1-(6-methylpyridin-3-yl)-1H-imidazole-2-carboxamide] |
| 159 nM | > 40000 nM | Cc1ccc(-n2c(C(N)=O)nc(C#Cc3ccnc(Cl)c3C)c2C)cn1 [Example 1, 4-((2-Chloro-3-methylpyridin-4-yl)ethynyl)-5-methyl-1-(6-methylpyridin-3-yl)-1H-imidazole-2-carboxamide] |
| 100 nM | > 40000 nM | Cc1ccc(-n2c(C(N)=O)nc(C#Cc3csc(Cl)c3)c2C)cn1 [Example 3, 4-[2-(5-Chlorothiophen-3-yl)ethynyl]-5-methyl-1-(6-methylpyridin-3-yl)imidazole-2-carboxamide] |
| 51 nM | > 40000 nM | COc1ccc(-n2c(C(N)=O)nc(C#Cc3ccnc(Cl)c3C)c2C)cn1 [Example 27, 4-[2-(2-Chloro-3-methyl-4-pyridyl)ethynyl]-1-(6-methoxy-3-pyridyl)-5-methyl-imidazole-2-carboxamide] |
